Patent publication US8551718B2 (Suven Life Science Limited, priority 2009, dated 2013)
Read-outs that look alike come from different tables or passages of the source.

Assays:
5-HT2A receptor [1] = biological target: T1, 5-HT2A receptor (Homo sapiens, UniProt P28223); experiment: Radioligand (SPA) competition binding assay, [3H]Ketanserin; conditions: for Binding to 5-HT2A receptor (in words): radioligand binding assay using SPA beads
histamine H1 receptor [2] = biological target: T2, histamine H1 receptor (Homo sapiens, UniProt P35367); conditions: for Blockade of histamine induced luciferase activity (in words): CHO-H1 cells, compound 10 μM with 10 μM histamine
5-HT2A receptor [3] = biological target: T1, 5-HT2A receptor; experiment: CRE-Luc reporter gene functional assay in CHO-5HT2A cells; type: cell-based; set-up: expressed in transfected cells; host or cells: CHO cells (CHO-5HT2A), co-transfected with CRE-Luc reporter; conditions: for Antagonism of serotonin induced luciferase activity (in words): compound 10 μM with 10 μM serotonin; for Dose response induction of luciferase activity (in words): up to the highest dose tested
histamine H1 receptor [4] = biological target: T2, histamine H1 receptor; conditions: radioligand binding assay using SPA beads
[5] = biological target: T3, adrenergic alpha1b receptor (Homo sapiens, UniProt P35368); experiment: Radioligand (SPA) competition binding assay, [3H]Prazosin; conditions: for Binding to alpha1b receptor (in words): radioligand binding assay using SPA beads
T3 sequence (P35368 1-520): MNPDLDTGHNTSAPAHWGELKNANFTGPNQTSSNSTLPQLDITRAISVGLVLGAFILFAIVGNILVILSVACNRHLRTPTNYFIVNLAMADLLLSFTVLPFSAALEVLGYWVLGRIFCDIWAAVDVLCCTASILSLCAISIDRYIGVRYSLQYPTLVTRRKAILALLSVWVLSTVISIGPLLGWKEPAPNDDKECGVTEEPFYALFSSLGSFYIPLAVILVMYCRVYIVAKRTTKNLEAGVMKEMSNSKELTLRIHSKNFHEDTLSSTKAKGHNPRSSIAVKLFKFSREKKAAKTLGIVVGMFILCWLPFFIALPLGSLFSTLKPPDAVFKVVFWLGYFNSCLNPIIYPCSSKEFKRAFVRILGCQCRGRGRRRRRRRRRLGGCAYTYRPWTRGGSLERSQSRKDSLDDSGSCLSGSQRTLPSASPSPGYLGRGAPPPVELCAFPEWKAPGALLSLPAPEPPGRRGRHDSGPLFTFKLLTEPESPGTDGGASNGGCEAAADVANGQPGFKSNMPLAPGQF

[6] = biological target: T3, adrenergic alpha1b receptor; experiment: CRE-Luc reporter gene functional assay in CHO-α1b cells; type: cell-based; set-up: expressed in transfected cells; host or cells: CHO cells (CHO-α1b), co-transfected with CRE-Luc reporter; conditions: for Blockade of epinephrine induced luciferase activity (in words): compound 10 μM with 10 μM epinephrine; for EC50: agonist mode, luciferase activity
histamine H1 receptor [7] = biological target: T2, histamine H1 receptor; experiment: biochemical
histamine H1 receptor [8] = biological target: T2, histamine H1 receptor; experiment: cell-based
[9] = biological target: T4, human adrenergic alpha1b receptor (Mesocricetus auratus, UniProt P18841); conditions: CHO cells expressing human adrenergic alpha1b receptor, literature; cited from earlier work
T4 sequence (P18841 1-515): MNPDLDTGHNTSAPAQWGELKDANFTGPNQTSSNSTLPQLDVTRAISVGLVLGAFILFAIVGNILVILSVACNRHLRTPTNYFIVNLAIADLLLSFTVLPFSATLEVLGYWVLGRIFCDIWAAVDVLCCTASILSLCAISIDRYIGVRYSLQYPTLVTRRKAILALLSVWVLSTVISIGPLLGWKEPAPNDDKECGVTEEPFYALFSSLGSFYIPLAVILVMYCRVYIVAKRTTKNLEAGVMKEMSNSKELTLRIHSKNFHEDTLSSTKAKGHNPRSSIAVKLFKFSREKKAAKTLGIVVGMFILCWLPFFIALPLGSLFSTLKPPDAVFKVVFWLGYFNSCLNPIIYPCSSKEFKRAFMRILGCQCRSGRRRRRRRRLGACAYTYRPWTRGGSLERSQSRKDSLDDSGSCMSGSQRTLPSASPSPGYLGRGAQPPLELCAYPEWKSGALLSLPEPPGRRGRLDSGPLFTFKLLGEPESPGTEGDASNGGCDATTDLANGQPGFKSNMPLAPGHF

T2 sequence (P35367 whole entry): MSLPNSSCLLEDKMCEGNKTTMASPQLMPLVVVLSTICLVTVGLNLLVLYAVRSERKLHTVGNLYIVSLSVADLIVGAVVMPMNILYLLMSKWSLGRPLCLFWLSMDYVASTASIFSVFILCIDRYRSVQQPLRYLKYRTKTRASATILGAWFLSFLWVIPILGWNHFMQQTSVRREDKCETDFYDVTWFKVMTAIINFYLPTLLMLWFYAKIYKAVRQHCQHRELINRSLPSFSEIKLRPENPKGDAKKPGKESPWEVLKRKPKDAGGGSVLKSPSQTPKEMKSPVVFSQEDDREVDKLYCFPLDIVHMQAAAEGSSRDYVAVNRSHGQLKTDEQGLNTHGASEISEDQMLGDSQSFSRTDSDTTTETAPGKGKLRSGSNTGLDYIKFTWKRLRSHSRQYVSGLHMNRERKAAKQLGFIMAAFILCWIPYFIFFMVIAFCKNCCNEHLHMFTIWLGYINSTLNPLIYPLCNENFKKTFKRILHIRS
T1 sequence (P28223 whole entry): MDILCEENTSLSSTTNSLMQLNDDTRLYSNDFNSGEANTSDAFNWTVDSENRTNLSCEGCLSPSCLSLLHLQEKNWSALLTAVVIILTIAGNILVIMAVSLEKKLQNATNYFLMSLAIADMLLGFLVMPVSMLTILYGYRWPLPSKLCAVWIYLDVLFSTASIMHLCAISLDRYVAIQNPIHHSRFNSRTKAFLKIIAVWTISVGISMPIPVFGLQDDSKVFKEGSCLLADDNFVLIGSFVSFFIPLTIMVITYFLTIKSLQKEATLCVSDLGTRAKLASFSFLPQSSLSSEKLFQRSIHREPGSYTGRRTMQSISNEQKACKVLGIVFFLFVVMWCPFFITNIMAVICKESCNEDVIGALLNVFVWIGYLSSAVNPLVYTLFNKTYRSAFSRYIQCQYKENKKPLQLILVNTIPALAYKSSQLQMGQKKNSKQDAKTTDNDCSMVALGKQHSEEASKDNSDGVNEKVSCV

Structure (SMILES)	Binding to 5-HT2A receptor (in words) (5-HT2A receptor [1])	Antagonism of serotonin induced luciferase activity (in words) (5-HT2A receptor [3])	Binding to H1 receptor (in words) (histamine H1 receptor [4])	Ki [5]	IC50 [6]	Kb [6]	Blockade of epinephrine induced luciferase activity (in words) ([6]; CHO-α1b cells)	Binding to alpha1b receptor (in words) [5]	EC50 ([6]; CHO-α1b cells, 0.1 to 10000 nM)	Dose response induction of luciferase activity (in words) (5-HT2A receptor [3])	other results
NCCc1c[nH]cn1 [Histamine]	did not show any binding	–	–	> 10 µM	–	–	–	did not show any binding	> 10 µM	did not show the induction of luciferase activity	Ki (5-HT2A receptor [1]): > 10 µM; Dose response induction of luciferase activity (in words) (histamine H1 receptor [2]): dose proportionate increase in luciferase activity; EC50 (5-HT2A receptor [3]; agonist mode, luciferase activity, 0.1 nM to 10,000 nM): > 10 µM; Dose response induction of luciferase activity (in words) ([6]; CHO-α1b cells, 0.1 to 10000 nM): did not respond
NCCc1c[nH]c2ccc(O)cc12 [Serotonin]	–	–	did not show any binding	> 10 µM	–	–	–	did not show any binding	> 10 µM	specific dose response effect	Ki (histamine H1 receptor [7]): > 10 µM; EC50 (histamine H1 receptor [8]): > 10 µM
NC[C@H](O)c1ccc(O)c(O)c1 [norepinephrine]	–	–	–	–	–	–	–	–	–	–	pEC50 for cAMP accumulation [9]: 6.6

Second part, led by results:

Binding to 5-HT2A receptor (in words) (5-HT2A receptor [1])	Antagonism of serotonin induced luciferase activity (in words) (5-HT2A receptor [3])	Binding to H1 receptor (in words) (histamine H1 receptor [4])	Ki [5]	IC50 [6]	Kb [6]	Blockade of epinephrine induced luciferase activity (in words) ([6]; CHO-α1b cells)	Binding to alpha1b receptor (in words) [5]	EC50 ([6]; CHO-α1b cells, 0.1 to 10000 nM)	Structure (SMILES)	Dose response induction of luciferase activity (in words) (5-HT2A receptor [3])	other results
no affinity	did not show any impact	no affinity	> 10 µM	> 10 µM	> 10 µM	did not show any effect	–	–	O=C(O)COCCN1CCN(C(c2ccccc2)c2ccc(Cl)cc2)CC1 (centres unmarked) [Cetirizine]	–	Blockade of histamine induced luciferase activity (in words) (histamine H1 receptor [2]): inverse agonist property; Blockade of histamine induced luciferase activity (in words) (histamine H1 receptor [2]; listed as cetirizine): completely blocked; Antagonism of serotonin induced luciferase activity, dose response study (in words) (5-HT2A receptor [3]; compound 0.1 to 10,000 nM with 10 μM serotonin): none or partial antagonism; Antagonism of epinephrine induced luciferase activity, dose response study (in words) ([6]; CHO-α1b cells): did not show any antagonism
–	–	–	–	–	0.000501 µM	completely blocked	–	–	CN(C)CCCN1c2ccccc2Sc2ccc(Cl)cc21 [Chlorpromazine]	–	–
–	fully antagonized	–	[…]	[…]	[…]	[…]	–	–	O=C(c1ccc(F)cc1)C1CCN(CCn2c(=O)[nH]c3ccccc3c2=O)CC1 [Ketanserin]	–	–
